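Test compounds were applied to cells in 96-well plates for 48 hours at 5 doses. GI50 is the concentration that inhibits growth by half.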 Active and inactive are the calls of the source. Rule as the data show it: active = GI50 up to about 1.1 µM and inactive = higher. A value given as a limit tells only on which side of the number the result lay.

This note sets out measurements from ChEMBL document CHEMBL1201862, “PubChem BioAssay data set” (2004).

Some test systems named below: XF498; HOP-18; LXFL 529; DMS-114; DLD-1; M19-MEL; DMS-273; RXF 631; BT-549.
What all share (assay): DTP human tumour cell line panel, 48 h

For `COc1cc2c(cc1OC)C(C(=O)O)C(c1ccccc1)N(C)C2=O` (stereo not given), the GI50 in the experiment on XF498, in the experiment with HOP-18, in the experiment with LXFL 529, with DMS-114, in the experiment on DLD-1 and in the experiment with M19-MEL was > 100 µM (inactive) throughout.
In the case of `CCC/C=C\C=C\C1(NS(=O)(=O)c2ccc(C)cc2)CCC(C(C)(C)C)CC1` (stereo not given), the GI50 (commonly the concentration at which growth is held to half of that of the control) in the experiment with XF498 is 16.7 µM (inactive); in the experiment with DMS-273, 13.4 µM (inactive); in the experiment on HOP-18, 14.9 µM (inactive); with LXFL 529, 25.2 µM (inactive); in the experiment with DLD-1, 19.4 µM (inactive); with M19-MEL it was 17.1 µM (inactive).
For the compound `CC(CN(C)C)/C(=N\Nc1ccccc1)c1ccccc1` (stereo not given), the GI50 in the experiment on DMS-273 was 0.324 µM (active); with HOP-18, 10.7 µM (inactive); in the experiment on LXFL 529 it was 0.0473 µM (active); in the experiment on DMS-114, 0.743 µM (active); with DLD-1 it was 0.256 µM (active); with M19-MEL, 1.24 µM (inactive).
Turning to `O=C1Cc2ccccc2CCc2ccsc21`, the GI50 was > 100 µM (inactive) in the experiment on XF498; > 100 µM (inactive) in the experiment on DMS-273; 70.8 µM (inactive) in the experiment on HOP-18; > 100 µM (inactive) with LXFL 529; > 100 µM (inactive) in the experiment on DLD-1; > 100 µM (inactive) in the experiment with M19-MEL.
Turning to `Cn1cccc(C(=O)c2ccccc2)c1=O`, the GI50 in the experiment on XF498, in the experiment with DMS-273, in the experiment on LXFL 529, in the experiment on DMS-114, in the experiment on DLD-1 and with M19-MEL was > 100 µM (inactive) throughout.
Turning to `N#CCCC[Si]12OCCN(CCO1)CCO2`, the GI50 in the experiment on DMS-273, in the experiment with HOP-18, in the experiment with LXFL 529, in the experiment with DMS-114, in the experiment with DLD-1 and in the experiment with M19-MEL was > 100 µM (inactive) throughout.
Consider `Cc1cc(C)nc(NS(=O)(=O)c2ccc(NC(=O)c3cccc4c(N)c5ccccc5nc34)cc2)n1`, for which the GI50 in the experiment with XF498, in the experiment with DMS-273, in the experiment on LXFL 529, with DMS-114, in the experiment with DLD-1 and in the experiment on M19-MEL was > 100 µM (inactive) throughout.
For the compound `Cc1cc(C(=C2C=CC(=[N+](C)C)C=C2)c2ccc([N+](C)(C)C)cc2)ccc1N(C)C`, the GI50 in the experiment on XF498 is 1.36 µM (inactive); with DMS-273 it was 5.01 µM (inactive); with LXFL 529, 6.98 µM (inactive); in the experiment on RXF 631 it was 7.91 µM (inactive); in the experiment with DMS-114, 4.67 µM (inactive); in the experiment with DLD-1, 6.65 µM (inactive). In the experiment with M19-MEL, the GI50 was 5.52 µM (inactive).
For the compound `CCN(CC)CCOC(=O)/C(=C/c1ccc(OC)cc1)c1cc(OC)c(OC)c(OC)c1`, the GI50 is 4.29 µM (inactive) in the experiment on DMS-273; 30.4 µM (inactive) in the experiment with HOP-18; 5.45 µM (inactive) in the experiment on LXFL 529; 7.66 µM (inactive) in the experiment on RXF 631; 4.81 µM (inactive) with DMS-114; 28.1 µM (inactive) in the experiment with DLD-1. Further, the GI50 with M19-MEL was 7.26 µM (inactive).
In the case of `Cc1ccc([N+]2=NC(c3ccc([N+](=O)[O-])cc3)=NN(c3ccccc3)C2)cc1`, the GI50 with XF498 was > 100 µM (inactive); in the experiment with DMS-273, 70.6 µM (inactive); in the experiment on LXFL 529 it was 42.1 µM (inactive); with DMS-114, 40.1 µM (inactive); with DLD-1, 25.7 µM (inactive); with M19-MEL, > 100 µM (inactive).
In the case of `COC1C(CO)OC(n2c3c(Cl)cccc3c3c4c(c5c6cccc(Cl)c6[nH]c5c32)C(=O)NC4=O)C(O)C1O` (stereo not given), the GI50 is 0.27 µM (active) in the experiment on XF498; 0.208 µM (active) in the experiment on DMS-273; 0.33 µM (active) with LXFL 529; 0.249 µM (active) in the experiment on RXF 631; 0.258 µM (active) with DMS-114; 0.162 µM (active) in the experiment with BT-549. For the same compound, the GI50 in the experiment with DLD-1 was 0.568 µM (active); in the experiment with M19-MEL it was 0.274 µM (active).
Regarding `CCOC1(COP(=O)(OCc2ccccc2)OCc2ccccc2)COC(COP(=O)(OCc2ccccc2)OCc2ccccc2)(OCC)CO1` (stereo not given), the GI50 with XF498 was > 100 µM (inactive); in the experiment with DMS-273, > 100 µM (inactive); with HOP-18 it was > 100 µM (inactive); in the experiment with LXFL 529, > 100 µM (inactive); in the experiment with RXF 631 it was 9.44 µM (inactive); in the experiment with DLD-1 it was > 100 µM (inactive). The GI50 with M19-MEL was 15.5 µM (inactive).
Turning to `COC(=O)C1=C(c2ccc3c(c2)OCO3)O[C@H](c2cc(OC)c(OC)c(OC)c2)[C@H]1COC(C)=O`, the GI50 with XF498 is 4.25 µM (inactive); in the experiment on DMS-273, 2.64 µM (inactive); with HOP-18 it was 15.2 µM (inactive); in the experiment on LXFL 529, 2.94 µM (inactive); in the experiment with DMS-114, 1.15 µM (inactive); in the experiment on DLD-1, 7.19 µM (inactive). Also, in the experiment with M19-MEL, the GI50 is 2.45 µM (inactive).
Regarding `O=C1C=CC(=O)C2C1Cc1ccccc1C2c1ccccc1` (stereo not given), the GI50 is 58.6 µM (inactive) with DMS-273; 53.6 µM (inactive) in the experiment on HOP-18; 17.3 µM (inactive) with LXFL 529; 22.2 µM (inactive) in the experiment on DMS-114; 56.2 µM (inactive) with DLD-1; 30.1 µM (inactive) in the experiment with M19-MEL.
On to `O=C(Nc1ccc(Cl)cc1Cl)C(=O)C(C(=O)c1ccc2ccccc2c1)C1OC(=O)c2ccccc21` (stereo not given), for which the GI50 in the experiment with LXFL 529 was 3.33 µM (inactive); with DMS-114, 11.1 µM (inactive); with DLD-1 it was 10.7 µM (inactive); in the experiment on M19-MEL it was 12.6 µM (inactive).
`Clc1ccccc1C(n1cc(Br)cn1)n1cc(Br)cn1`: the GI50 in the experiment on XF498 is 17.5 µM (inactive); with DMS-273, 17.8 µM (inactive); in the experiment on LXFL 529, 95.7 µM (inactive); in the experiment on RXF 631, > 10 µM (inactive); in the experiment with DMS-114 it was 21.4 µM (inactive); in the experiment with DLD-1 it was 18.6 µM (inactive). The GI50 with M19-MEL was 14.4 µM (inactive).
For the compound `CC(=O)OCC1OC(OCc2ccccc2)C(Br)C(OC(C)=O)C1OC(C)=O` (stereo not given), the GI50 in the experiment with XF498, with DMS-273, in the experiment on HOP-18, in the experiment on LXFL 529, with RXF 631 and in the experiment with DLD-1 was > 100 µM (inactive) in each case. Also, the GI50 with M19-MEL is > 100 µM (inactive).
On to `CC(=O)Nc1ccc2c(c1)C(=O)c1ccccc1-2`, for which the GI50 in the experiment on DMS-273, in the experiment with LXFL 529, with DMS-114, in the experiment with DLD-1 and in the experiment on M19-MEL was > 100 µM (inactive) each time.
For `O=C(/C=C/c1ccc(O)c(O)c1)c1ccc(O)cc1O` [BUTEIN], the GI50 was 10.6 µM (inactive) in the experiment with DMS-273; 2.47 µM (inactive) with DMS-114; 9.27 µM (inactive) in the experiment with BT-549; 13.9 µM (inactive) with DLD-1; 14 µM (inactive) with M19-MEL.
On to `COc1ccc(S(=O)(=O)N/N=C\c2cc([N+](=O)[O-])cc(I)c2O)c(OC)c1OC`, for which the GI50 is 20.7 µM (inactive) with XF498; 32.4 µM (inactive) with DMS-273; 23.3 µM (inactive) in the experiment with HOP-18; > 10 µM (inactive) with LXFL 529; 25.1 µM (inactive) in the experiment with DMS-114; 28.8 µM (inactive) in the experiment with DLD-1. In the experiment with M19-MEL, the GI50 is 31.7 µM (inactive).
As to `CC(=O)CC(=O)CCCC(=O)Nc1ccc(Cl)cc1Cl`, the GI50 in the experiment on XF498 was > 100 µM (inactive); in the experiment on DMS-273 it was > 100 µM (inactive); in the experiment on HOP-18, 25.2 µM (inactive); with LXFL 529, > 100 µM (inactive); in the experiment on RXF 631, > 100 µM (inactive); in the experiment on DLD-1, > 100 µM (inactive).
Consider `NCCOc1ccc(/C(=C(/Cl)c2ccccc2)c2ccccc2)cc1`, for which the GI50 with XF498 was 5.6 µM (inactive); in the experiment with DMS-273, 10.6 µM (inactive); in the experiment with LXFL 529 it was 7.1 µM (inactive); in the experiment on RXF 631, 11.4 µM (inactive); with DMS-114, 12.9 µM (inactive); with DLD-1, 15.6 µM (inactive). The GI50 in the experiment with M19-MEL was 10.7 µM (inactive).
Regarding `CC(=O)Nc1ccc(NNc2cc(=O)n(C)c(=O)[nH]2)cc1`, the GI50 in the experiment with BT-549 was 13.1 µM (inactive).
For `Cc1cc(NS(=O)(=O)c2ccc(NC(=O)c3cccc4c(NNc5ccc(S(=O)(=O)N=C(N)N)cc5)c5ccccc5nc34)cc2)no1`, the GI50 in the experiment with BT-549 is 57.8 µM (inactive).
For the compound `CC(C)NC(=O)OCc1c(COC(=O)NC(C)C)c(-c2ccc(Cl)c(Cl)c2)n2c1CCC2`, the GI50 with XF498 is 45.7 µM (inactive); with DMS-273, > 49.2 µM (inactive); with HOP-18 it was > 61.2 µM (inactive); with LXFL 529, 3.6 µM (inactive); with DMS-114, 33.7 µM (inactive); in the experiment on BT-549, > 100 µM (inactive). Besides, the GI50 with DLD-1 is > 51.5 µM (inactive); in the experiment with M19-MEL it was 33.7 µM (inactive).
Regarding `Cc1ccc(S(=O)(=O)CC(=O)CC(=O)C(=O)Nc2cccc(C(F)(F)F)c2)cc1`, the GI50 in the experiment on XF498, in the experiment on DMS-273, with LXFL 529, in the experiment with RXF 631, with DLD-1 and in the experiment with M19-MEL was > 100 µM (inactive) each time.
In the case of `O=C(Nc1ccc(Nc2ccc(NC(=O)c3ccccc3)c3c2C(=O)c2ccccc2C3=O)c2c1C(=O)c1ccccc1C2=O)c1ccccc1`, the GI50 with DMS-273, in the experiment on HOP-18, with LXFL 529, in the experiment with RXF 631, in the experiment on DMS-114 and with DLD-1 was > 100 µM (inactive) each time. The GI50 in the experiment on M19-MEL was > 100 µM (inactive).
As to `CCCCCCc1cc2cc(C(=O)Nc3cccc(F)c3)c(=N)oc2cc1O`, the GI50 in the experiment with BT-549 was 2.63 µM (inactive).
On to `Cc1occc1C(=S)Nc1ccc(Cl)c(/C=N/OC(C)(C)C)c1`, for which, in the experiment on BT-549, the GI50 was 17.6 µM (inactive).
As to `CC1(C)CCC2=C(O1)/C(=N\Nc1ccc(F)cc1)c1ccccc1C2=O`, the GI50 with BT-549 was 41.9 µM (inactive).
On to `Cc1c(/C=N/NC(=O)c2ccc(Cl)cc2)c(=O)n(-c2ccccc2)n1C`, for which the GI50 in the experiment with DMS-273, in the experiment with HOP-18, with LXFL 529, in the experiment on DMS-114, in the experiment on DLD-1 and in the experiment with M19-MEL was > 100 µM (inactive) each time.
